Source: US8071580B2, “Medium-chain length fatty alcohols as stimulators of hematopoiesis” (Prometic Biosciences Inc., priority 2004, dated 2011)

Assays:
[1] = tested on: Female C57BL/6 mice immunosuppressed with cyclophosphamide; assay: Chemoprotection studies: in vivo induction of immune cell proliferation or protection in cyclophosphamide-immunosuppressed mice; details: oral pre-treatment day -3, -2, -1, CY 200 mg/kg i.v. day 0, sacrifice day +5; for peripheral white blood cell count: FIG. 2; for spleen red cell count: FIG. 3
Protocol: Chemoprotection Studies: In vivo Induction of Immune Cell Proliferation or Protection By Medium-Chain Fatty Alcohol.
Female C57BL/6 mice, 6 to 8 weeks old, were immunosuppressed by treatment with 200 mg/kg of cyclophosphamide (CY) administered intravenously at day 0. To examine the immunoprotective effect of the medium-chain fatty alcohol, mice were pre-treated at day −3, −2 and −1 by oral administration of the compound. Mice were sacrificed at day +5 by cardiac puncture and cervical dislocation. After the sacrifice, tissues were crushed in PBS buffer and cells were counted on a hemacytometer.

rats = details: oral; cited from earlier work

CCCCCCCCCCO [decanol]
bone marrow white cell count ([1]; FIG. 1): significant increase
peripheral white blood cell count [1]: nonsignificant increase
spleen red cell count [1]: significant increase
LD50 (rats): 4.7 g/kg body weight

CCCCCCCCCCCCO [dodecanol]
peripheral white blood cell count [1]: nonsignificant increase
spleen red cell count [1]: significant increase

CCCCCCCCO [octanol]
peripheral white blood cell count [1]: nonsignificant increase
spleen red cell count [1]: significant increase
LD50 (rats): 3.2 g/kg body weight
